Experimental data taken from US20090176807A1, “GLUCOCORTICOID MIMETICS, METHODS OF MAKING THEM, PHARMACEUTICAL COMPOSITIONS, AND USES THEREOF” (priority 2005, published 2009).

Each compound was assayed against T1, human glucocorticoid receptor (GR) complex (Homo sapiens, UniProt P04150) (assay: Glucocorticoid receptor competitive binding assay (fluorescence polarization)). Details: competition with TAMRA-labeled dexamethasone, result in words only.
T1 construct: made in house; host or cells: insect expression system (baculovirus lysate)
T1 sequence (P04150 1-777): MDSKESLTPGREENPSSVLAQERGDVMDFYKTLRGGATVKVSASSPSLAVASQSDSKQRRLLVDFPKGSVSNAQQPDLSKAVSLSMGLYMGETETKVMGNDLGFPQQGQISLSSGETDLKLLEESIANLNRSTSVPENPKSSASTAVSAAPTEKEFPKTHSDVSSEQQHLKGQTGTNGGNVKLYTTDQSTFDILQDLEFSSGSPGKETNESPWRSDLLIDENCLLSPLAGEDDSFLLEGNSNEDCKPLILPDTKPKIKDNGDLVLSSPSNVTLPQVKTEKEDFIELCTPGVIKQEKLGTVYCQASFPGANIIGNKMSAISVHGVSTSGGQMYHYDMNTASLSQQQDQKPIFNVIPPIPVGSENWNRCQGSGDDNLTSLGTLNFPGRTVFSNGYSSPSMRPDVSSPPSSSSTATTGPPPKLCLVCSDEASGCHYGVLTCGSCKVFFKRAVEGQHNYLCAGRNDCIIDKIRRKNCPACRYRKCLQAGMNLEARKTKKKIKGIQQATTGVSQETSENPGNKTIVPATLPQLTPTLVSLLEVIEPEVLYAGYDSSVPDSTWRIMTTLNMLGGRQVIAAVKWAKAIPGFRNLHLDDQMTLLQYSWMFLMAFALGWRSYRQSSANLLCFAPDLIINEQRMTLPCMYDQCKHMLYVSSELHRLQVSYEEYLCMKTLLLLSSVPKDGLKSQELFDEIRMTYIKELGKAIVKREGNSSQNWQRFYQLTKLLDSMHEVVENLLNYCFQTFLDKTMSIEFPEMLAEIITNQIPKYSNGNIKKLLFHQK
Procedure: Compounds of the invention were evaluated for binding to the steroid receptor by a fluorescence polarization competitive binding assay.
The wavelengths for maximum excitation and emission of the fluorescent probe should first be measured. An example of such a probe is rhodamine (TAMRA)-labeled dexamethasone.
The affinity of the probe for the steroid receptor was then determined in a titration experiment. The fluorescence polarization value of the probe in assay buffer was measured on an SLM-8100 fluorometer using the excitation and emission maximum values described above. Aliquots of expression vector lysate were added and fluorescence polarization was measured after each addition until no further change in polarization value was observed. Non-linear least squares regression analysis was used to calculate the dissociation constant of the probe from the polarization values obtained for lysate binding to the probe.
This assay uses fluorescence polarization (FP) to quantitate the ability of test compounds to compete with tetramethyl rhodamine (TAMRA)-labeled dexamethasone for binding to a human glucocorticoid receptor (GR) complex prepared from an insect expression system. The assay buffer was: 10 mM TES, 50 mM KCl, 20 mM Na2MoO4.2H2O, 1.5 mM EDTA, 0.04% w/v CHAPS, 10% v/v glycerol, 1 mM dithiothreitol, pH 7.4. Test compounds were dissolved to 1 mM in neat DMSO and then further diluted to 10× assay concentration in assay buffer supplemented with 10% v/v DMSO. Test compounds were serially diluted at 10× assay concentrations in 10% DMSO-containing buffer in 96-well polypropylene plates. Binding reaction mixtures were prepared in 96-well black Dynex microtiter plates by sequential addition of the following assay components to each well: 15 μL of 10× test compound solution, 85 μL of GR-containing baculovirus lysate diluted 1:170 in assay buffer, and 50 μL of 15 nM TAMRA-labeled dexamethasone. Positive controls were reaction mixtures containing no test compound; negative controls (blanks) were reaction mixtures containing 0.7 μM to 2 μM dexamethasone. […] IC50 values were determined by iterative non-linear curve fitting of the FP signal data to a 4-parameter logistic equation.
`CC(C)(CC(O)(Cn1cc(Cl)c(=O)c2cnccc21)C(F)(F)F)c1cccc2c1OCO2` (stereo not drawn) [1-(4-Benzo[1,3]dioxol-4-yl-2-hydroxy-4-methyl-2-trifluoromethylpentyl)-3-chloro-1H-[1,6]naphthyridin-4-one] was tested, and the “activity in the GR binding assay” value was “potent activity”.
In the case of `CC(C)(CC(O)(Cn1ccc(=O)c2cnccc21)C(F)(F)F)c1cc(-c2cncnc2)cc2c1OCC2` (stereo not drawn) [1-[2-Hydroxy-4-methyl-4-(5-pyrimidin-5-yl-2,3-dihydrobenzofuran-7-yl)-2-trifluoromethylpentyl]-1H-[1,6]naphthyridin-4-one], the “activity in the GR binding assay” value is reported as “potent activity”.
`CC(C)(CC(O)(Cn1ccc(=O)c2cnccc21)C(F)(F)F)c1cc(F)ccc1O` (stereo not drawn) [1-[4-(5-Fluoro-2-hydroxyphenyl)-2-hydroxy-4-methyl-2-trifluoromethylpentyl]-1H-[1,6]naphthyridin-4-one] was tested, and the “activity in the GR binding assay” value was “potent activity”.
`COc1ccc(F)cc1C(C)(C)CC(O)(Cn1ccc(=O)c2cnccc21)C(F)(F)F` (stereo not drawn) [1-[4-(5-Fluoro-2-methoxyphenyl)-2-hydroxy-4-methyl-2-trifluoromethylpentyl]-1H-[1,6]naphthyridin-4-one] was tested, and the “activity in the GR binding assay” value was “potent activity”.
With `Cc1ccc(F)cc1C(C)(C)CC(O)(Cn1ccc(=O)c2cnccc21)C(F)(F)F` (stereo not drawn) [1-[4-(5-Fluoro-2-methylphenyl)-2-hydroxy-4-methyl-2-trifluoromethylpentyl]-1H-[1,6]naphthyridin-4-one] the “activity in the GR binding assay” value was “potent activity”.
`CC(C)(CC(O)(Cn1cc(Cl)c(=O)c2cnccc21)C(F)(F)F)c1cc(-c2cccnc2)cc2c1OCC2` (stereo not drawn) [3-Chloro-1-[2-hydroxy-4-methyl-4-(5-pyridin-3-yl-2,3-dihydrobenzofuran-7-yl)-2-trifluoromethylpentyl]-1H-[1,6]naphthyridin-4-one] was tested, and the “activity in the GR binding assay” value was “potent activity”.
For `CC(C)(CC(O)(Cn1cc(Cl)c(=O)c2cnccc21)C(F)(F)F)c1cc(-c2cncnc2)cc2c1OCC2` (stereo not drawn) [3-Chloro-1-[2-hydroxy-4-methyl-4-(5-pyrimidin-5-yl-2,3-dihydrobenzofuran-7-yl)-2-trifluoromethylpentyl]-1H-[1,6]naphthyridin-4-one], the “activity in the GR binding assay” value was “potent activity”.
For `CC(C)(CC(O)(Cn1cc(Cl)c(=O)c2sccc21)C(F)(F)F)c1cccc2c1OCO2` (stereo not drawn) [4-(4-Benzo[1,3]dioxol-4-yl-2-hydroxy-4-methyl-2-trifluoromethylpentyl)-6-chloro-4H-thieno[3,2-b]pyridin-7-one], the “activity in the GR binding assay” value was “potent activity”.
For `CC(C)(CC(O)(Cn1ccc(=O)c2sccc21)C(F)(F)F)c1cccc(-c2ccccc2)c1` (stereo not drawn) [4-(4-Biphenyl-3-yl-2-hydroxy-4-methyl-2-trifluoromethylpentyl)-4H-thieno[3,2-b]pyridin-7-one], the “activity in the GR binding assay” value was “potent activity”.
With `CC(C)(CC(O)(Cn1cc(Cl)c(=O)c2sccc21)C(F)(F)F)c1cccc(-c2ccccc2)c1` (stereo not drawn) [4-(4-Biphenyl-3-yl-2-hydroxy-4-methyl-2-trifluoromethylpentyl)-6-chloro-4H-thieno[3,2-b]pyridin-7-one] the “activity in the GR binding assay” value was “potent activity”.
For `Cc1cccc(C(C)(C)CC(O)(Cn2ccc(=O)c3sccc32)C(F)(F)F)c1O` (stereo not drawn) [4-[2-Hydroxy-4-(2-hydroxy-3-methylphenyl)-4-methyl-2-trifluoromethylpentyl]-4H-thieno[3,2-b]pyridin-7-one], the “activity in the GR binding assay” value was “potent activity”.
In the case of `CC(C)(CC(O)(Cn1ccc(=O)c2sccc21)C(F)(F)F)c1cc(-c2cncnc2)ccc1O` (stereo not drawn) [4-[2-Hydroxy-4-(2-hydroxy-5-pyrimidin-5-ylphenyl)-4-methyl-2-trifluoromethylpentyl]-4H-thieno[3,2-b]pyridin-7-one], the “activity in the GR binding assay” value is reported as “potent activity”.
For `COc1c(C)cccc1C(C)(C)CC(O)(Cn1ccc(=O)c2sccc21)C(F)(F)F` (stereo not drawn) [4-[2-Hydroxy-4-(2-methoxy-3-methylphenyl)-4-methyl-2-trifluoromethylpentyl]-4H-thieno[3,2-b]pyridin-7-one], the “activity in the GR binding assay” value was “potent activity”.
With `COc1ccc(-c2cccnc2)cc1C(C)(C)CC(O)(Cn1ccc(=O)c2sccc21)C(F)(F)F` (stereo not drawn) [4-[2-Hydroxy-4-(2-methoxy-5-pyridin-3-ylphenyl)-4-methyl-2-trifluoromethylpentyl]-4H-thieno[3,2-b]pyridin-7-one] the “activity in the GR binding assay” value was “potent activity”.
`COc1ccccc1C(C)(C)CC(O)(Cn1ccc(=O)c2sccc21)C(F)(F)F` (stereo not drawn) [4-[2-Hydroxy-4-(2-methoxyphenyl)-4-methyl-2-trifluoromethylpentyl]-4H-thieno[3,2-b]pyridin-7-one] was tested, and the “activity in the GR binding assay” value was “potent activity”.
With `CC(C)(CC(O)(Cn1ccc(=O)c2sccc21)C(F)(F)F)c1cc(-c2cncnc2)cc2c1OCC2` (stereo not drawn) [4-[2-Hydroxy-4-methyl-4-(5-pyrimidin-5-yl-2,3-dihydrobenzofuran-7-yl)-2-trifluoromethylpentyl]-4H-thieno[3,2-b]pyridin-7-one] the “activity in the GR binding assay” value was “potent activity”.
`CC(C)(CC(O)(Cn1ccc(=O)c2sccc21)C(F)(F)F)c1cccc2c1OCC2` (stereo not drawn) [4-[4-(2,3-Dihydrobenzofuran-7-yl)-2-hydroxy-4-methyl-2-trifluoromethylpentyl]-4H-thieno[3,2-b]pyridin-7-one] was tested, and the “activity in the GR binding assay” value was “potent activity”.
`Cc1cccc(C(C)(C)CC(O)(Cn2ccc(=O)c3sccc32)C(F)(F)F)c1OC(F)F` (stereo not drawn) [4-[4-(2-Difluoromethoxy-3-methylphenyl)-2-hydroxy-4-methyl-2-trifluoromethylpentyl]-4H-thieno[3,2-b]pyridin-7-one] was tested, and the “activity in the GR binding assay” value was “potent activity”.
For `COc1c(Br)cccc1C(C)(C)CC(O)(Cn1ccc(=O)c2sccc21)C(F)(F)F` (stereo not drawn) [4-[4-(3-Bromo-2-methoxyphenyl)-2-hydroxy-4-methyl-2-trifluoromethylpentyl]-4H-thieno[3,2-b]pyridin-7-one], the “activity in the GR binding assay” value was “potent activity”.
With `COc1ccc(F)cc1C(C)(C)CC(O)(Cn1ccc(=O)c2sccc21)C(F)(F)F` (stereo not drawn) [4-[4-(5-Fluoro-2-methoxyphenyl)-2-hydroxy-4-methyl-2-trifluoromethylpentyl]-4H-thieno[3,2-b]pyridin-7-one] the “activity in the GR binding assay” value was “potent activity”.
In the case of `Cc1ccc(F)cc1C(C)(C)CC(O)(Cn1ccc(=O)c2sccc21)C(F)(F)F` (stereo not drawn) [4-[4-(5-Fluoro-2-methylphenyl)-2-hydroxy-4-methyl-2-trifluoromethylpentyl]-4H-thieno[3,2-b]pyridin-7-one], the “activity in the GR binding assay” value is reported as “potent activity”.
For `CC(C)(CC(O)(Cn1cc(Br)c(=O)c2sccc21)C(F)(F)F)c1cccc2c1OCC2` (stereo not drawn) [6-Bromo-4-[4-(2,3-dihydrobenzofuran-7-yl)-2-hydroxy-4-methyl-2-trifluoromethylpentyl]-4H-thieno[3,2-b]pyridin-7-one], the “activity in the GR binding assay” value was “potent activity”.
For `COc1ccc(-c2cccnc2)cc1C(C)(C)CC(O)(Cn1cc(Cl)c(=O)c2sccc21)C(F)(F)F` (stereo not drawn) [6-Chloro-4-[2-hydroxy-4-(2-methoxy-5-pyridin-3-ylphenyl)-4-methyl-2-trifluoromethylpentyl]-4H-thieno[3,2-b]pyridin-7-one], the “activity in the GR binding assay” value was “potent activity”.
For `COc1ccc(-c2cncnc2)cc1C(C)(C)CC(O)(Cn1cc(Cl)c(=O)c2sccc21)C(F)(F)F` (stereo not drawn) [6-Chloro-4-[2-hydroxy-4-(2-methoxy-5-pyrimidin-5-ylphenyl)-4-methyl-2-trifluoromethylpentyl]-4H-thieno[3,2-b]pyridin-7-one], the “activity in the GR binding assay” value was “potent activity”.
